Literature values as cited in patent US20110236473A1, “STABLE ALISKIREN FORMULATIONS” (Sanovel Ilac Sanayi Ve Ticaret Anonim Sirketi, priority 2010, published 2011).
Like-named read-outs stand apart in the source and are kept apart here.

solubility (in n-octanol): freely soluble | solubility (in phosphate buffer): freely soluble | solubility (in water): freely soluble
SMILES: COCCCOc1cc(C[C@@H](C[C@H](N)[C@@H](O)C[C@@H](C(=O)NCC(C)(C)C(N)=O)C(C)C)C(C)C)ccc1OC [Aliskiren hemifumarate, (2S,4S,5S,7S)-5-amino-N-(2-carbamoyl-2-methylpropyl)-4-hydroxy-2-isopropyl-7-[4-methoxy-3-(3-methoxypropoxy)benzyl]-8-methylnonamide]
